Test results reported in ChEMBL document CHEMBL1201862, “PubChem BioAssay data set” (2004).
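Where inhibition never reached the appropriate level, the endpoint shown equals the highest concentration tested. Otherwise, values were interpolated linearly from a five-concentration, 48-hour dose response in 96-well plates. The concentration for 50% growth inhibition is given as GI50.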 Active and inactive are the calls of the source. No stated cut-off is given here; in the data, active = GI50 up to about 1.1 µM and inactive = higher.

Assays:
Assay in all cases: NCI tumour cell line growth inhibition, 48 h
[1] = tested on: A498
[2] = tested on: ACHN
[3] = tested on: DLD-1
[4] = tested on: EKVX
[5] = tested on: HCT-116
[6] = tested on: HOP-92
[7] = tested on: HT-29
[8] = tested on: M19-MEL
[9] = tested on: MOLT-4
[10] = tested on: Malme-3M
[11] = tested on: NCI-H460
[12] = tested on: OVCAR-4
[13] = tested on: OVCAR-5
[14] = tested on: OVCAR-8
[15] = tested on: RXF 393
[16] = tested on: SF-295
[17] = tested on: SK-MEL-5
[18] = tested on: SNB-75
[19] = tested on: UACC-257
[20] = tested on: 786-0

Measured: GI50

OC(c1ccccc1)C1CC2C=CC1C2 (centres undefined)
inactive: [1] > 100 µM | [2] > 100 µM | [3] > 100 µM | [4] > 100 µM | [5] > 100 µM | [6] > 100 µM | [7] > 100 µM | [8] > 100 µM | [9] > 100 µM | [10] > 100 µM | [11] > 100 µM | [12] > 100 µM | [13] > 100 µM | [14] > 100 µM | [15] > 100 µM | [16] > 100 µM | [17] > 100 µM | [18] > 100 µM | [19] > 100 µM

COC(=O)CCC1(NS(=O)(=O)c2ccc(C)cc2)CCC(C(C)(C)C)CC1 (centres undefined)
inactive: [20] 14.4 µM | [1] 13.6 µM | [2] > 10 µM | [3] 17 µM | [4] > 10 µM | [5] 7.74 µM | [6] 7.06 µM | [7] 13.8 µM | [8] 11.4 µM | [9] 6.15 µM | [10] 19.3 µM | [11] 31.2 µM | [12] 11.2 µM | [13] 16.3 µM | [14] 14.5 µM | [15] > 10 µM | [16] 11.8 µM | [17] 5.62 µM | [18] 14.3 µM | [19] 6.95 µM

OC(CCNC12CC3CC(CC(C3)C1)C2)c1ccccc1 (centres undefined)
inactive: [20] > 100 µM | [1] > 100 µM | [2] > 100 µM | [3] 99.8 µM | [4] > 100 µM | [5] 80.7 µM | [6] 78.3 µM | [7] 35.3 µM | [8] > 100 µM | [9] > 100 µM | [10] > 100 µM | [11] > 100 µM | [12] > 100 µM | [13] > 100 µM | [14] > 100 µM | [15] > 100 µM | [16] > 100 µM | [17] 43.7 µM | [18] 75.7 µM | [19] > 100 µM
